Results from patent US4372948A, “Derivative of saccharide and physiologically active agent containing the same” (Kureha Kagaku Kogyo Kabushiki Kaisha, priority 1980, dated 1983).

Experiments:
total cholesterol = assay: Anti-hyperlipemia activity, total cholesterol in blood; assay type: in vivo, rabbit (Japanese white male); details: oral, 300 mg/kg once; for Reduction of cholesterol level after 3 hrs.: negative = raising
Description: (§1) Japanese white male rabbits were fed for 3 months with a solid diet containing 1% of cholesterol taken ad lib, and after confirming the raised lipid content of the serum of the rabbits, they were utilized as model animals suffering from experimental arteriosclerosis. Each of the present compounds was administered orally as a solution or dispersion in distilled water to the experimental animals of each group at a dose rate of 300 mg/kg once, and blood samples were taken at a predetermined time interval from the auricular vein of each animal. The content of cholesterol in the blood specimen was traced as the time passed by, with an enzymatic method, and the content of beta-lipoprotein in the same blood specimen was traced with a colorimetry. Each value in Table 7 is the difference between the level just before administration and the level after 3 or 6 hours of the administration.

Sarcoma-180 = assay: Anti-tumour activity against Sarcoma-180; assay type: in vivo, mouse (ICR-JCL); details: Mus musculus, Sarcoma-180, po, 600 h, 10 times every other day, tumour weight on 25th day, read-out: Antitumour activity, inhibiting rate (I.R.)
Description: Sarcoma-180 was transplanted into the axillary part of ICR-JCL mice at a rate of 1×10^6 cells/animal, and after 24 hours of transplantation, each of the present compounds as a solution or dispersion in sterilized physiological saline solution was orally administered to each of the transplanted mice 10 times every other day at a dose of 500 mg/kg/time. On 25th day of the transplantation, tumour node(s) were extirpated from all the mice to determine the weight of the tumour nodes.
Antitumour activity (activity of inhibiting the proliferation of the transplanted sarcoma) of each of the present compounds was derived by the following formula and shown in Table 6:
Antitumour activity (Inhibiting rate, I.R.)=(1-T/C)×100(%).
T represents the total weight of tumour nodes of the group of mice transplanted and administered with the present compound, and
C represents the total weight of tumour nodes of the group of mice transplanted, however, not administered with any agents.

cotton pellet granuloma = assay: Anti-granuloma activity (cotton pellet); assay type: in vivo, rat; details: Rattus norvegicus, po, 192 h, 7 days, read-out: I.R. against cotton pellet edema
Description: Following the method of Winter et al. (1963), each two cotton wool pellets, each weighing 30±1 mg, were implanted into the back of each rats of groups of rats, each group consisting of 6 animals, at the positions of mutually symmetrical concerning the median line of the rat. To these groups of the thus operated rats, the present compounds were respectively administered orally and forcibly as a solution or dispersion in distilled water for 7 continuous days, once a day at a dose of 1000 mg/kg/day. On 8th day of the implantation, the granuloma was extirpated and the dry weight of the granuloma was measured, the rate of inhibiting the proliferation of granuloma being obtained as in (5-1) being shown in Table 8.

beta-lipoprotein = assay: Anti-hyperlipemia activity, beta-lipoprotein in blood; assay type: in vivo, rabbit (Japanese white male); details: oral, 300 mg/kg once
Description: as §1

acetic acid writhing = assay: Analgetic activity against chemical stimulation of acetic acid (writhing); assay type: in vivo, mouse (ICR female); details: Mus musculus, po, 30 min before 0.6% acetic acid, read-out: I.R. of writhing
Source text: (§2) Rate of inhibition (I.R.) (%)=(1-T/C)×100
T represents the average number of writhing of the group of mice administered with the present compound and injected with acetic acid, and C represents the average number of writhing of the group of mice only injected with acetic acid (control).

in vivo = details: mouse, in vivo, po, mice, 7 days observation, read-out: LD50, acute oral toxicity
[1] = system: pyrexia (Saccharomyces cerevisiae); assay: Anti-pyrexia activity (yeast-induced); assay type: in vivo; details: Rattus norvegicus, oral, read-out: Rate of inhibiting pyrexia (I.R.)
Description: Following the method of Winter et al. (1961), an aqueous dispersion of 20% by weight of Saccharomyces cerevisiae was subcutaneously injected into groups of rats, each group consisting of 6 animals, and after 10-hour fasting, 1000 mg/kg of each of the present compounds was orally administered to the rat as a solution of dispersion in distilled water, and then the rectal temperature of the rat was measured at a predetermined interval of time to find the lowest temperature.
The anti-pyrexia activity of each compound was obtained from the following formula: […]
Anti-pyrexia activity represented by the rate of inhibition (I.R.)
C2 represents the average rectal temperature of negative control (non-treatment), not injected with the yeast and not administered with the present compound,
C1 represents the average temperature of positive control, injected with the yeast and not administered with the compound and T represents the temperature of tested animals, injected with the yeast and administered with the present compound.

carrageenin edema = assay: Anti-Carrageenin edema activity; assay type: in vivo, rat; details: Rattus norvegicus, po, 1000 mg/kg once, read-out: I.R. against carrageenin edema
Description: After orally administering each of the present compounds forcibly to each group of rats, composed of 10 animals, as a solution or dispersion in distilled water at a dose of 1000 mg/kg once, 0.1 ml of an aqueous dispersion of 1% carrageenin in aqueous physiological saline solution was injected into the foot pad of the right hind leg of the administered animal following Van Arman et al. (1963). Thereafter, the thickness of the foot pad was measured at a time interval to find the rate of inhibiting of the swelling of the foot pad according to the following formula:
as §2
T means the average volume of the foot pad of the animals administered with one of the present compounds and carrageenin, and
C means that of the animal not administered with the present compound, however, administered with carrageenin.

level of blood sugar = assay: Anti-hyperglycemia activity (reduction of blood sugar level); assay type: in vivo, rat (Wistar, streptozotocin); details: oral, 300 mg/kg
Description: A group of Wistar rats to which at first streptozotocin was interperitoneally administered at a rate of 60 mg/kg and of which the positivity of glycosuria was confirmed after a week of the administration and to which regular insulin was further administered and of which the reduction of levels of glucose in urine and blood was once confirmed, however, of which hyperglycemia and hyperglycosuria were again confirmed after a few days was chosen and used as model animals of glycosuria in the following test. After orally administering each of the present compounds to the model animals at a dose of 300 mg/kg body weight, as a solution or dispersion in distilled water, the blood was collected two times, respectively after 3 and 6 hours of the administration.

exudation = assay: Anti-exudation activity (air pouch, croton oil); assay type: in vivo, rat; details: Rattus norvegicus, po, 144 h, 5 days, read-out: I.R. against exudation
Description: Following the method of Baris et al. (1965), air was injected subcutaneously into the back of groups of rats, each group consisting of 6 animals to make an air pouch, and 0.5 ml of sesame oil containing 1% by weight of croton oil was injected into the air pouch. Each of the present compounds was orally administered forcibly to each of the groups of rats as a solution or dispersion in distilled water at a dose rate of 1000 mg/kg/day for continued five days. The amount of liquid exudated into the air pouch was measured on 6th day of the operation. The rate of inhibiting the exudation of the liquid was obtained by the same manner as in (5-2) and the results are shown also in Table 8.

blood pressure = assay: Anti-hypertension activity (reduction of blood pressure); assay type: in vivo, rat (spontaneous hypertension); details: oral, 300 mg/kg
Description: Rats of spontaneous hypertension were orally administered with each of the present compounds as a solution or dispersion in distilled water at a dose rate of 300 mg/kg body weight. After 3 and 6 hours of the administration, the blood pressure of each rat was determined, and the difference between the above-determined value and the value just before the administeration was used as the index of the activity of reducing the blood pressure of the compound.

[2] = system: pseudo-escaping reaction to tail pressure; assay: Analgetic activity against mechanical stimulation of pressure; assay type: in vivo, mouse (ICR female); details: oral, 1000 mg/kg

Row | SMILES | Reduction of cholesterol level after 3 hrs. (total cholesterol) [mg/dL] | Reduction of cholesterol level after 6 hrs. (total cholesterol) [mg/dL] | inhibition in vivo at 500 mg/kg (Sarcoma-180) [%] | inhibition in vivo at 1000 mg/kg/day (cotton pellet granuloma) [%] | Reduction of beta-lipoprotein level after 3 hrs. (beta-lipoprotein) [mg/dL] | Reduction of beta-lipoprotein level after 6 hrs. (beta-lipoprotein) [mg/dL] | inhibition in vivo at 1000 mg/kg (acetic acid writhing) [%] | LD50 at 168 h (in vivo) [mg/kg] | inhibition in vivo at 1000 mg/kg [1] [%] | inhibition in vivo at 1000 mg/kg (carrageenin edema) [%] | Reduced level of blood sugar after 3 hrs. (level of blood sugar) [mg/dL] | Reduced level of blood sugar after 6 hrs. (level of blood sugar) [mg/dL] | inhibition in vivo at 1000 mg/kg/day (exudation) [%] | Reduced level of blood pressure after 3 hrs. (blood pressure) [mm Hg] | Reduced level of blood pressure after 6 hrs. (blood pressure) [mm Hg] | Pseudo-escapting reaction pressure [2] [mmHg] | Pseudo-escapting reaction time [2] [s]
1 | O=C(OC1CCCCC1)c1ccccc1NC1C[C@H](O)[C@H](O)CO1 (stereo partly drawn) [Compound 16, cyclohexyl o-aminobenzoate-N-D-deoxyriboside] | 0 | 33 | 37 | 6.5 | 104 | 110 | 26 | 8800 | 48 | 18.6 | 125 | 140 | 5.7 | 20 | 20 | 87 | 39
2 | O=C(OC1CCCCC1)c1ccc(NC2O[C@H](CO)[C@@H](O[C@H]3O[C@H](CO)[C@@H](O[C@H]4O[C@H](CO)[C@@H](O)[C@H](O)[C@H]4O)[C@H](O)[C@H]3O)[C@H](O)[C@H]2O)cc1 (some centres unmarked) [Compound 20, cyclohexyl p-aminobenzoate-N-maltotrioside] | -2 | 50 | 37 | 21.7 | 125 | 128 | 17 | 12500 | 23 | 8.6 | 113 | 120 | 6.2 | 22 | 24 | 75 | 35
3 | C[C@@H]1OC(Nc2ccc(C(N)=O)cc2)[C@H](O)[C@H](O)[C@H]1O (stereo partly drawn) [Compound 5, p-aminobenzoic acid amide-N-L-rhamnoside] | -1 | 32 | 39 | 16.8 | 134 | 148 | 52 | 10500 | 59 | 4.2 | 91 | 128 | 12.4 | 17 | 18 | 90 | 41
4 | C[C@@H]1OC(Nc2ccc(C(=O)OCC3CCCCC3)cc2)[C@H](O)[C@H](O)[C@H]1O (stereo partly drawn) [Compound 25, hexahydrobenzyl p-aminobenzoate-N-L-rhamnoside] | -3 | 44 | 50 | 6.5 | 95 | 106 | 50 | 9400 | 54 | 18.1 | 88 | 127 | 22.3 | 16 | 18 | 93 | 44
